First: Cc1c(C)c2c(c(C)c1O)SC(C)(c1ccccc1)O2 (stereo not given)
Second: Cc1c(C)c2c(c(C)c1NC(=O)CC(C)(C)C)OCC2c1ccc(C(C)C)cc1 (stereo not given)
The melting point of the first is lower: 80 to 81 °C for the first, 214 to 215 °C for the second.

First: O=C(Cc1cc(F)ccc1F)N1CCNc2ncc(I)cc21
Second: O=[N+]([O-])c1cnc2ccc(F)cc2c1Nc1ccccc1F
The melting point of the first is lower: 152 to 153 °C for the first, 161 to 162 °C for the second.

Compared with `CCCC(=O)C1=C(O)CC(c2cccc3c2OCO3)CC1=O` (stereo not given), `CCCc1c(O)ccc2ccc(OCC(=O)OC)cc12` is higher in melting point: 81 to 82 °C for the first, 122 to 124 °C for the second.

First: COC(=O)c1c(C(F)(F)F)nc(C(F)(F)F)c(C(=O)OC)c1[Si](C)(C)C
Second: CS(=O)c1nnc(-c2ccccc2NC(=O)c2cccc(C(F)(F)F)c2)s1 (stereo not given)
The melting point of the first is lower: 29 to 31 °C for the first, 125 to 126 °C for the second.

Compared with `COc1cc2c(c(Cl)c1Cl)C(=O)C(C)(c1ccc([N+](=O)[O-])cc1)C2` (stereo not given), `CCC(=O)Oc1cc(OC)cc(OC)c1C(=O)C=Cc1ccc(Cl)cc1` is lower in melting point: 179 to 180 °C for the first, 136 °C for the second.

First: CC(C)(C)NCC(O)COc1ccc2c(c1-c1nc(C(F)(F)F)c[nH]1)CCCC2 (stereo not given)
Second: COc1cc2c3c(c1)c(CCN1CCN(c4cc(C)ccn4)CC1)c(C)n3CCC2
The melting point of the first is higher: 203 to 205 °C for the first, 104 °C for the second.

Compared with `CCNc1nnc2ccc(-c3cccc(N(C)C(=O)CC)c3)nn12`, `CC(=O)c1ccc(Nc2cccc(-c3ccccn3)c2)c([N+](=O)[O-])c1` is lower in melting point: 198 to 199 °C for the first, 195 to 196 °C for the second.

Compared with `O=C(CCCOc1ccc2nc3[nH]c(=O)[nH]c3cc2c1)N1CCN(c2ccccc2)CC1`, `COc1nc2ccccc2nc1NC(=O)N1CCC(c2ccccc2)(c2ccccc2)CC1` is lower in melting point: 277 to 279 °C for the first, 202 to 204 °C for the second.

First: Nc1ccc(Cc2ccccc2)cc1[N+](=O)[O-]
Second: O=C(C=Cc1ccc(O)c([N+](=O)[O-])c1)NC1CCc2ccccc21 (stereo not given)
The melting point of the first is lower: 80 to 83 °C for the first, 203 to 205 °C for the second.

First: C#CCN1CCC(C(C)(C)CO)CC1
Second: C#CCn1cc(Cc2ccc(C(=O)OC)cc2OC)c2cc(NC(=O)CC3CCCC3)ccc21
The melting point of the first is lower: 78 to 82 °C for the first, 160 to 161 °C for the second.

First: Cc1ccc(-c2cc(Cl)c3ccccc3n2)cc1Cl
Second: CC(=O)Oc1c(C)ccc2ccccc12
The melting point of the first is higher: 115 to 116 °C for the first, 81 to 83 °C for the second.

Compared with `N=C(N)c1ccncc1`, `O=C1C(=O)c2ccccc2C2=C1SCC1(CCN(C(=O)c3ccncc3)CC1)O2` is higher in melting point: 136 to 140 °C for the first, 267 to 269 °C for the second.

Compared with `COc1ccc(CN2C(=O)[C@@H](N3C(=O)c4ccccc4C3=O)[C@H]2c2ccc(Cl)cc2)c(OC)c1` (relative stereo), `O=CC1C(c2ccc(F)cc2)CCC12C=Cc1ccccc12` (stereo not given) is lower in melting point: 178 to 180 °C for the first, 115 to 118 °C for the second.

First: COc1ccc(C2(C#Cc3ccccc3)CCC(=O)CC2)cc1OC1CCCC1
Second: NC1CCCCC1C(O)c1ccccc1 (stereo not given)
The melting point of the first is higher: 99 to 100 °C for the first, 77 to 85 °C for the second.

Compared with `CN1C(=O)c2ccc(CBr)cc2S1(=O)=O`, `CC[C@H]1[C@H](O)CC(=O)N1c1ccc(C#N)c(Cl)c1C` is lower in melting point: 153 to 154 °C for the first, 142 to 146 °C for the second.

Compared with `CCCCC(CC)COC(=O)c1cc(OC)c(O)c(OC)c1` (stereo not given), `COc1cc(CCc2ccc(O)c(O)c2)cc(OC)c1OC` is higher in melting point: 35 to 36 °C for the first, 113 to 115 °C for the second.

First: O=C(OCc1ccccc1)C(O)N1C(=O)C2CC=CCC21 (stereo not given)
Second: O=C(O)CSCc1cccc(NC(=O)c2cc(-c3ccccc3)oc2C(F)(F)F)c1
The melting point of the first is lower: 92 to 93 °C for the first, 178 to 182 °C for the second.

First: CCN(CC)CCN(C)CCC1CCCCN1C(=O)N1c2ccccc2NC(=O)c2csc(C)c21 (stereo not given)
Second: Cc1cc2[nH]c(=O)n(C3CCN(CCCN(c4ccc(F)cc4)c4ccc(F)cc4)CC3)c2cc1C
The melting point of the first is lower: 131 to 133 °C for the first, 219 to 220 °C for the second.

Compared with `CCC(Nc1nc(NC(C)=O)nc(C(C)F)n1)c1ccccc1` (stereo not given), `Cn1cc(-c2ccc(C(=O)O)cc2)cn1` is higher in melting point: 118 °C for the first, 274 to 275 °C for the second.

First: Nc1c(C(=O)c2ccoc2)[nH]c2cc(Cl)ccc12
Second: O=C(O)c1cc(=O)cc(C=Cc2ccc(O)cc2)o1
The melting point of the first is lower: 113 to 114 °C for the first, 256 °C for the second.

Compared with `COCCOC(=O)CCc1cc(C(C)(C)C)c(O)c(C(C)(C)C)c1`, `CC(C)(C)OC(=O)NC1C=CCC2C(=O)NC(=O)C12` (stereo not given) is higher in melting point: 62 to 64 °C for the first, 158 to 160 °C for the second.

First: Cc1ccc(-c2ccc3c(c2)C=C(C(=O)Nc2ccc(CN4CCN(C(c5ccccc5)c5ccccc5)CC4)cc2)CC3)cc1
Second: CNCCCc1c[nH]c(-c2ccc(F)cc2)c1-c1ccncc1
The melting point of the first is higher: 217 to 218 °C for the first, 193 to 198 °C for the second.

Compared with `Cc1ccc(-n2cnc3nncc-3c2N)cc1`, `FCCOc1ccc(COCOc2ccc(Cl)cc2)cc1` is lower in melting point: greater than 300 °C for the first, 60.7 to 61.6 °C for the second.

Compared with `CNC(NCCNCc1ccc(CN(C(C)C)C(C)C)o1)=C(C#N)C#N`, `CCOC(=O)c1nnc(-c2cc3sc(C)c(N(C)S(=O)(=O)c4cccs4)c3[nH]2)s1` is higher in melting point: 79 to 80 °C for the first, 209 °C for the second.

First: Nc1c(Cl)cc(CO)cc1Cl
Second: c1ccc2c(c1)CSSC2
The melting point of the first is higher: 110 to 112 °C for the first, 77 to 78 °C for the second.

Source: a melting point compilation (Tetko et al.; mined from patent text by program, amines drawn as free bases though some values may be those of a salt)
